What all share (assay type): binding
Series [1] concerns the target T1, ER-α (Homo sapiens, UniProt P03372).
T1 sequence (P03372 1-595): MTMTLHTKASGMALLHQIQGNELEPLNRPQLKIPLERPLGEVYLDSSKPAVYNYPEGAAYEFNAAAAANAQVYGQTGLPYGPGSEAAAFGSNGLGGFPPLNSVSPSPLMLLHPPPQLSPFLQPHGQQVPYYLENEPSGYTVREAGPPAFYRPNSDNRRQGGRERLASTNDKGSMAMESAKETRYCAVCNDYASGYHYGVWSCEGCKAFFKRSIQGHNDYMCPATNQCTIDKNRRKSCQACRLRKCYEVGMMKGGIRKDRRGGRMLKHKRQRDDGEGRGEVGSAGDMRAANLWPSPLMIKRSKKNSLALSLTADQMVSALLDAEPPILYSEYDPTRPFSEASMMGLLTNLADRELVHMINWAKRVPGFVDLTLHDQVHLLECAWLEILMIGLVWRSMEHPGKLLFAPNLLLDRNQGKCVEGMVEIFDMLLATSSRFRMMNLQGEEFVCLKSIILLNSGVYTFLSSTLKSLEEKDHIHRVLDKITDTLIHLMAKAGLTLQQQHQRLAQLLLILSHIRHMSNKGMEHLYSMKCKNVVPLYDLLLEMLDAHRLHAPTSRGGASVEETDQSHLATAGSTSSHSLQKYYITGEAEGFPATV
In words: Microplate thermal shift assay (Thermofluor) of ER-α against a panel of steroid ligands. As to the method:
The concentration of ER-α in all of the experiments was 8 μM and the ligand concentration was 20 μM.
A 2 μL ligand solution at 2 times the final concentration was dispensed with a micropipette into a 384 well black wall Greiner plate. Then, 2 μL of the protein dye solution was dispensed on top of the ligand solution in the 384 well plate. The plates were spun to ensure mixing of the protein-dye and ligand solutions followed by layering of […], of silicone oil to prevent evaporation during heating of the samples.
(Differential scanning fluorimetry follows unfolding on heating by fluorescence.)

Another series deals with ER-β (Homo sapiens, UniProt Q92731). In words: Microplate thermal shift assay (Thermofluor) of ER-β with ligands and co-regulators. The settings on record: for Change in Tm stabilization from the receptor-ligand ΔTm in the presence of SRC-1 NR2 / Change in Tm stabilization from the receptor-ligand ΔTm in the presence of SRC-3 NR2 / Change in Tm stabilization from the receptor-ligand ΔTm in the presence of SRC-3 / Change in Tm stabilization from the receptor-ligand ΔTm in the presence of NCoR1 / Observed ΔTm stabilization, ligand alone / ΔTm at 11 µM: ER-β 8 μM, ligand 20 μM; for Change in Tm stabilization from the receptor-ligand ΔTm in the presence of SRC-1 NR2: co-activator peptide SRC1—NR2; for Change in Tm stabilization from the receptor-ligand ΔTm in the presence of SRC-3 NR2: co-activator peptide SRC3—NR2; for Change in Tm stabilization from the receptor-ligand ΔTm in the presence of SRC-3 / ΔTm at 11 µM: co-activator protein SRC-3 11 μM; for Change in Tm stabilization from the receptor-ligand ΔTm in the presence of NCoR1: co-repressor peptide NCoR-1; for Observed ΔTm stabilization, ligand alone: no co-regulator, average of four experiments; for ΔTm at 11 µM: read-out: Change in Tm stabilization from the receptor-ligand ΔTm in the presence of SRC-3.

For series [2], the target named is T1, ER-α. The experiment in a line: Microplate thermal shift assay (Thermofluor) of ER-α with ligands and co-regulators.
Procedure: (§1) A 2 μL ligand solution at 2 times the final concentration was dispensed with a micropipette into a 384 well black wall Greiner plate. Then, 2 μL of the protein dye solution was dispensed on top of the ligand solution in the 384 well plate. The plates were spun to ensure mixing of the protein-dye and ligand solutions followed by layering of 1 μL of silicone oil to prevent evaporation during heating of the samples.
The mark [3] stands for this setting: ER-α 8 μM, ligand 20 μM, average of four experiments, in °C (unit assumed).
Where [4] appears, read: ER-α 8 μM, ligand 20 μM, average of four experiments.

Like-named read-outs stand apart in the source and are kept apart here.

Chain of ER-β (Q92731 whole entry, species assumed): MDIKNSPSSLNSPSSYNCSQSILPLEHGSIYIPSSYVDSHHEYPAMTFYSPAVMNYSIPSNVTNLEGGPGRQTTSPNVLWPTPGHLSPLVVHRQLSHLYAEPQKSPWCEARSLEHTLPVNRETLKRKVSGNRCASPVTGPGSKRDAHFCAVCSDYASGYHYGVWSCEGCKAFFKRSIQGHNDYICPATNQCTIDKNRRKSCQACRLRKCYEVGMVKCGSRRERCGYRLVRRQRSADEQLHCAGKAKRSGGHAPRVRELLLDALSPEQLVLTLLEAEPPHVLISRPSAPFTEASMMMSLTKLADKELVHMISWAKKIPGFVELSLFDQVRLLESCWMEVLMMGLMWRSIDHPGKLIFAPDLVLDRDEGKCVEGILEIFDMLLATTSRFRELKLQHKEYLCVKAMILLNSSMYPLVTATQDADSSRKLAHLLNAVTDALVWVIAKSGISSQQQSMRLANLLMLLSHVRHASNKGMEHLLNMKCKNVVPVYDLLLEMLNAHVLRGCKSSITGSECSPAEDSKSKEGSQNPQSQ
Procedure for ER-β: as §1

Regarding 4-hydroxytamoxifen [4-OH-tamoxifen], the “Ligand function for ER-α (agonist or antagonist)” value at ER-α [1] is “antagonist”. Further, on ER-α [1] (in °C (unit assumed)), the ΔTm stood at 19.99.
For the compound “17-α-ethyleneestradiol [17-α-ethylen-E2]”, on ER-β, the “Change in Tm stabilization from the receptor-ligand ΔTm in the presence of SRC-1 NR2” value is 2.6, the “Change in Tm stabilization from the receptor-ligand ΔTm in the presence of SRC-3 NR2” value is 2.6, the “Change in Tm stabilization from the receptor-ligand ΔTm in the presence of SRC-3” value was 1.6 and the “Change in Tm stabilization from the receptor-ligand ΔTm in the presence of NCoR1” value was −0.1. Moreover, at ER-β, the “Observed ΔTm stabilization, ligand alone” value was 15.0.
Consider `COc1cc2c(cc1O)CC[C@@H]1[C@@H]2CC[C@]2(C)[C@@H](O)CC[C@@H]12` [2-methoxy-E2, 2-methoxyestradiol], for which the ΔTm on ER-α [1] (setting [3]) was found to be 5.98. In addition, the “Ligand function for ER-α (agonist or antagonist)” value at ER-α [1] (interpretation if ligands had been screened against co-regulators as in Example 1) was “agonists”. Also, the “Change in Tm stabilization from the receptor-ligand ΔTm in the presence of NCoR1” value on ER-α [2] (ER-α 8 μM, ligand 20 μM, co-repressor peptide NCoR-1) is −0.3. Also, at ER-α [2] (ER-α 8 μM, ligand 20 μM, no co-regulator, average of four experiments), the “Observed ΔTm stabilization, ligand alone” value was 1.8. Besides, at ER-β, the “Change in Tm stabilization from the receptor-ligand ΔTm in the presence of SRC-1 NR2” value is 4.4, the “Change in Tm stabilization from the receptor-ligand ΔTm in the presence of SRC-3 NR2” value is 4.4, the “Change in Tm stabilization from the receptor-ligand ΔTm in the presence of SRC-3” value is recorded as 2.2 and the “Change in Tm stabilization from the receptor-ligand ΔTm in the presence of NCoR1” value was −0.7. At ER-β, the “Observed ΔTm stabilization, ligand alone” value was 1.5.
For `C[C@@]12CCC[C@H]1[C@@H]1CCC3=CCCC[C@]3(C)[C@H]1CC2` [4-androstene], on ER-α [1] (setting [4]), the ΔTm is −0.23.
For `C[C@]12CC[C@@H]3c4ccc(O)cc4CC[C@H]3[C@@H]1CC[C@@H]2O` [Estradiol, β-estradiol], the ΔTm at 11 µM at ER-β worked out at 1.1 °C.
For `C[C@]12CC[C@@H]3c4ccc(O)cc4C[C@@H](CCCCCCCCC[S+]([O-])CCCC(F)(F)C(F)(F)F)[C@H]3[C@@H]1CC[C@@H]2O` (stereo partly shown) [ICI-182780], the ΔTm at 11 µM was 0 °C on ER-α [2] (ER-α 8 μM, ligand 20 μM, co-activator protein SRC-3 11 μM, read-out: Change in Tm stabilization from the receptor-ligand ΔTm in the presence of SRC-3) and 0.6 °C at ER-β. The “Additional stabilization / ability to recruit co-activators in the presence of co-activator protein/peptide” value was “no ability to recruit co-activators” at ER-α [2] (ER-α, result in words) and “no ability to recruit co-activators” at ER-β (ER-β, result in words). Besides, the “Observed ΔTm stabilization, ligand alone” value at ER-β stood at 13.6.
`C[C@]12C[C@H](O)[C@H]3[C@@H](CCC4=CC(=O)CC[C@@]43C)[C@@H]1CC[C@@H]2C(=O)CO` [corticosterone]: the ΔTm on ER-α [1] (setting [4]) is listed as −0.27.
`C[C@]12CCC(=O)C=C1CC[C@@H]1[C@@H]2C(=O)C[C@@]2(C)[C@H]1CC[C@]2(O)C(=O)CO` [cortisone]: the ΔTm at ER-α [1] (setting [3]) is 0.01.
As for `CC(=O)[C@H]1CC[C@H]2[C@@H]3CCC4=CC(=O)CC[C@]4(C)[C@H]3CC[C@]12C` [progesterone], at ER-α [1] (setting [4]), the ΔTm is recorded as −0.19.
Regarding SRC-3: co-activator protein SRC-3, in the series with ER-α [2] (ER-α 8 μM, no ligand, SRC-3 11 μM, peptides 100 XM), the Observed ΔTm stabilization by co-regulator alone (no ligand) came out at 0.5 °C. In addition, the “Preferential recruitment of co-activator, ER-α vs. ER-β” value with ER-α [2] (in the presence of estrogen-like ligands, result in words) is reported as “preferentially recruited”.
